Literature values, collected in patent US20040038890A1, “Human voltage-gated potassium channel subunit” (priority 1998, published 2004).

Legend:
[1] = system: potassium currents in rat pulmonary artery myocytes
[2] = system: Kv2.1 and Kv2.1/rKv9.3 complexes; settings: Kv2.1 compared with Kv2.1/rKv9.3
Kv2.1/rKv9.3 = Kv2.1/rKv9.3 (Rattus norvegicus, UniProt O88759+P15387); settings: Kv2.1/rKv9.3 versus Kv2.1 alone, Xenopus oocytes
Kv2.1/rKv9.3, sequence (P15387 whole entry): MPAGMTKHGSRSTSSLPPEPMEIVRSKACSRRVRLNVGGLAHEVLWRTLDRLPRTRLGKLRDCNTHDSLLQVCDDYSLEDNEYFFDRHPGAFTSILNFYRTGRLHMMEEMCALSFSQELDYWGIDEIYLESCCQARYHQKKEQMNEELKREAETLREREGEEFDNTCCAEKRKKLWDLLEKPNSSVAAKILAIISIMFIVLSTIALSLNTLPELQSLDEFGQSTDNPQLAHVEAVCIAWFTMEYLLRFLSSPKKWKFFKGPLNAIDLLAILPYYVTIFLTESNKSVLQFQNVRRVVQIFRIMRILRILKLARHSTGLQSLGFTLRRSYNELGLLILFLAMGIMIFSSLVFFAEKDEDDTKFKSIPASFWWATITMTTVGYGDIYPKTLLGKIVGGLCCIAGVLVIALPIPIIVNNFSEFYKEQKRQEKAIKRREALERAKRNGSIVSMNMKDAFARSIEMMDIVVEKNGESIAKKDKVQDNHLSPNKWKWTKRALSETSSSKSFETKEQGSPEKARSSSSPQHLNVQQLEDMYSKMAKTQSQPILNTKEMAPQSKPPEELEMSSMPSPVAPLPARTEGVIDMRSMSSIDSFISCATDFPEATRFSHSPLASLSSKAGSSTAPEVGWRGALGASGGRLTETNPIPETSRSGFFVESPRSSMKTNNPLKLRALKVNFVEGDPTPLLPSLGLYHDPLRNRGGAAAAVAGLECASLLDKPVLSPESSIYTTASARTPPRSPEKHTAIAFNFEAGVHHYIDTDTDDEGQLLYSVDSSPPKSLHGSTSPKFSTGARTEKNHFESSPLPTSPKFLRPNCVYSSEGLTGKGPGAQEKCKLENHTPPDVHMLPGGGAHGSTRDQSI
Kv2.1/rKv9.3, sequence (O88759 whole entry): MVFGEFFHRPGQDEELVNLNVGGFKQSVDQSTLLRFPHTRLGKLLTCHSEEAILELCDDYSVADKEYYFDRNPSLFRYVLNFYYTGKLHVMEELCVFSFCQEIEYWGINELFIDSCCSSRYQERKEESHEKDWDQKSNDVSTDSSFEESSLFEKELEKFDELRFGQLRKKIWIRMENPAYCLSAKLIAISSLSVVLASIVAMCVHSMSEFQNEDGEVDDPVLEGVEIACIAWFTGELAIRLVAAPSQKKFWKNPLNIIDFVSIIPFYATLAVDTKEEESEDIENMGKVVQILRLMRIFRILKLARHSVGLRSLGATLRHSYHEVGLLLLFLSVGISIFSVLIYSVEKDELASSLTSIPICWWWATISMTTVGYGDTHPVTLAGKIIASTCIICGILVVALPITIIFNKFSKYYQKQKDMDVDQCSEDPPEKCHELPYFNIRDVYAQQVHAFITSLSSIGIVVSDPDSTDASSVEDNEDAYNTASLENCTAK

Compound | effect on potassium currents [1] | sensitivity of Kv2.1 and Kv2.1/rKv9.3 complexes [2] | decrease in sensitivity of Kv2.1 when co-expressed with rKv9.3 (Kv2.1/rKv9.3) [fold]
CCN[C@@H](C)Cc1cccc(C(F)(F)F)c1 [DFF, dex-fenfluramine] | inhibit potassium currents | similarly sensitive | 
CC[N+](CC)(CC)CC.[Cl-] [TEA, tetraethylammonium chloride] |  |  | 3
aminorex fumarate | inhibit potassium currents |  | 
